Experimental data published in patent publication US9884862B2, “Pyridopyrimidinedione derivatives” (Novartis AG, priority 2014, dated 2018).
Like-named read-outs stand apart in the source and are kept apart here.

Legend:
CFTR-Y122X = CFTR-Y122X assay (dual reporter isogenic Hek293 cell lines, Renilla luminescence readthrough); type: cell-based; details: for Emax / AC50 / Amax: nonsense mutation suppression, 24 h incubation, tested up to 100 μM; for Emax / Amax: 100% = 14 mM paromomycin; for Emax: read-out: Amax
Source text: Activity of compounds of the present invention was examined in recombinant, dual reporter isogenic Hek293 cell lines (“CFTR-Y122X assay”). The engineered reporter constructs contained the 18 bp sequence stretch corresponding to a common Y122X PTC mutation in CFTR class I mutant patients (see Sermet-Gaudelus, BMC Medicine, 2007, 5(5)). Instead of a tyrosine (Y) in position 122 of the CFTR protein a TGA stop codon interrupts the open reading frame (Y122X) of the corresponding mRNA. This TGA stop codon triplet (followed by the pyrimidine base cytosine) is permissive to aminoglycoside mediated translational readthrough which served as positive control for high throughput screening. A corresponding TAA stop codon variant and a wildtype non mutated construct was used for confirmation and counter screening. The CFTR sequence was sandwiched between an eGFP reporter, and a triple myc tag sequence fused to a full length Renilla reporter. All sequences, including an intron containing one positioned pre-eGFP (b-globin intron) were cloned in frame. The corresponding expression constructs were stably expressed in the isogenic HEK-R4 cell host (Invitrogen Incorp.) and selected by blasticidin resistance. The isogenic integration of the construct minimizes gene dose effects and improves assay reproducibility. Stably integrated single cell derived clones were selected and characterized for aminoglycoside mediated readthrough. […] Readthrough of Y122X accumulates an intracellular localized fusion protein approximately 65.5 kDa in size as controlled by western blot analysis and immunofluorescence using an anti-renilla antibody. The eGFP reporter pre-PTC mutation serves as visual control for genetic stability of the screening clones and minimizes protein degradation of small fusion protein amounts. In the assay, compound concentration was 10 μM. In miniaturized 1536 well format 2000 cells were dispensed in 4 μl/well and incubated for 24 h at 37° C., 5% CO2. 40 nl compounds were placed on the cells with control wells containing 1 ul Paramomycin and 14.4 mM final concentration. Compounds were incubated for 24 h. Renilla Glo substrate (2.5 ul) was added and plates were centrifuged and processed for luminescence measurement using various readers. Activity calculation was done using the equation: A1(%)=100*(S−NC)/(AC−NC) where AC, NC and S correspond to active controls (injection of Stimulation buffer=100% stimulation), neutral controls (buffer injection which Iloprost EC10) and screening samples (S). NC corresponds to 0% activity whereas AC is 100% activity (14 mM paromomycin). False positive artifacts were removed in confirmation and validation screening using the same assay format followed by counterscreening using the respective wildtype construct (w/o PTC mutation) cell model. Compounds were tested up to 100 μM compound concentration.

[1] = test system: alpha-L-Iduronidase W402X in Hurler patient derived fibroblast cells; assay: Hurler patient derived fibroblast cell cultures, restored alpha-L-iduronidase activity (W402X readthrough); type: cell-based, human; details: 8 days incubation, highest concentration 20 uM; for Emax / AC50: Homo sapiens, Fibroblast, 192 h; for Emax / Amax: 14 mM paromomycin = 100% control; for Emax: read-out: Amax; for AC50: 8 point dilutions
Source text: Activity of compounds of the present invention was examined in patient derived fibroblast cells. The genotyped cells were derived from the Coriell Institute (# GM00798) and contain an in frame homozygous TGG to TAG change at nucleotide 1293 of exon 9 which results in a W402X mutation. The W402X mutation is one of the most common Hurler syndromes causing loss of function mutation. Between 60-70% of genotyped patients contain either the Q70X and/or the W402X in mutation and are classified as severe MPSI patients. This TAG stop codon triplet is permissive to aminoglycoside mediated translational readthrough which served as activity control for compound testing. Readthrough of W402X restores alpha-L-Iduronidase activity which results in removal of lysosomal accumulated Glycosaminoglycan's. Iduronidase expression could neither be detected by Taqman PCR© nor by enzyme activity or ELISA methods without compound stimulation. Compounds were tested in concentration response mode. Therefore 5000 patient cells/40 ul/well in 384 well plates were used. Compound dilutions were derived from freshly prepared 10 mM compound stock solutions. Highest concentration was 20 uM and subsequently diluted 1: 3.16 (8 point dilutions, n=4). Final DMSO concentration was below 0.5% and tested to be without effect on cell viability, growth and readthrough. Cells were incubated for 8 days with one cell media and compound exchange at day 3. Thereafter cell media was removed and cells were lysed (0.4 M Sodiumformate, 0.1% NaN3, 0.9% NaCl, 0.2% Triton, pH 3.5). Restored alpha-L-iduronidase activity in cell lysates was measured with the fluorescent 4-MU iduronide substrate (5 ul of 0.4 mM 4 Methylumbelliferyl alpha-L-iduronide/well) after 48 h incubation. Paromomycin was used as reference control (14 mM=100% control).

SMILES | Emax [1] | AC50 [1] | Emax (CFTR-Y122X; Homo sapiens, HEK293, 24 h) | AC50 (CFTR-Y122X; Homo sapiens, HEK293, 24 h) | other results
CCSc1nc2c(c(=O)n1-c1ccccc1)C(=O)C1CCCC1N2 (stereo not shown) [2-(ethylthio)-3-phenyl-5a,6,7,8,8a,9-hexahydro-3H-cyclopenta[5,6]pyrido[2,3-d]pyrimidine-4,5-dione] |  |  |  |  | suppression relative to paromomycin reference activity (CFTR-Y122X; at the above dose ranges (up to 100 μM)): less than 5%
CC(C)c1nc2c(c(=O)c3sccc3n2C)c(=O)n1-c1ccccc1 [Example 1.1, 2-isopropyl-9-methyl-3-phenylthieno[2′,3′:5,6]pyrido[2,3-d]pyrimidine-4,5(3H,9H)-dione] | 25% | 12 µM |  |  | Emax (CFTR-Y122X; Homo sapiens, HEK293): 247%; AC50 (CFTR-Y122X; Homo sapiens, HEK293): 2.2 µM
Cc1cc2c(=O)c3c(=O)n(-c4ccccc4)c(C(C)C)nc3n(C)c2s1 [Example 1.2, 2-isopropyl-7,9-dimethyl-3-phenylthieno[3′,2′:5,6]pyrido[2,3-d]pyrimidine-4,5(3H,9H)-dione] |  | 17 µM |  |  | Amax [1]: 59%; Amax (CFTR-Y122X): 249%; AC50 (CFTR-Y122X): 13 µM
Cc1cc2c(=O)c3c(=O)n(-c4ccccc4)c(C4CCC4)nc3[nH]c2s1 [Example 2.1, 2-cyclobutyl-7-methyl-3-phenylthieno[3′,2′:5,6]pyrido[2,3-d]pyrimidine-4,5(3H,9H)-dione] | 42% | 12 µM | 211% | 12 µM | 
Cc1cc2c(=O)c3c(=O)n(-c4ccccc4)c(C4CCC4)nc3n(CCN)c2s1 [Example 2.2, 9-(2-aminoethyl)-2-cyclobutyl-7-methyl-3-phenylthieno[3′,2′:5,6]pyrido[2,3-d]pyrimidine-4,5(3H,9H)-dione] | 162% | 6.9 µM | 343% | 4.3 µM | 
Cc1cc2c(s1)c(=O)c1c(=O)n(-c3ccccc3)c(C(C)C)nc1n2C [Example 2.3, 2-isopropyl-7,9-dimethyl-3-phenylthieno[2′,3′:5,6]pyrido[2,3-d]pyrimidine-4,5(3H,9H)-dione] | 39% |  | 169% | 14 µM | 
Cc1cc2c(=O)c3c(=O)n(-c4ccccc4)c(C(C)C)nc3n(C)c2s1 [Example 2.4, 2-isopropyl-7,9-dimethyl-3-phenylthieno[3′,2′:5,6]pyrido[2,3-d]pyrimidine-4,5(3H,9H)-dione] |  |  |  | 11 µM | Amax [1]: 13%; Amax (CFTR-Y122X): 299%
CC(C)c1nc2[nH]c3cscc3c(=O)c2c(=O)n1-c1ccccc1 [Example 2.5, 2-isopropyl-3-phenylthieno[3′,4′:5,6]pyrido[2,3-d]pyrimidine-4,5(3H,9H)-dione] | 16% | 1.1 µM | 113% | 23 µM | 
CC(C)c1nc2[nH]c3sccc3c(=O)c2c(=O)n1-c1ccccc1 [Example 2.6, 2-isopropyl-3-phenylthieno[3′,2′:5,6]pyrido[2,3-d]pyrimidine-4,5(3H,9H)-dione] | 6% |  | 97% | 16 µM | 
CC(C)c1nc2[nH]c3ccsc3c(=O)c2c(=O)n1-c1ccccc1 [Example 2.7, 2-isopropyl-3-phenylthieno[2′,3′:5,6]pyrido[2,3-d]pyrimidine-4,5(3H,9H)-dione] | 51% | 10 µM | 332% | 6.9 µM | 
Cc1cc2[nH]c3nc(C(C)C)n(-c4ccccc4)c(=O)c3c(=O)c2s1 [Example 2.8, 2-isopropyl-7-methyl-3-phenylthieno[2′,3′:5,6]pyrido[2,3-d]pyrimidine-4,5(3H,9H)-dione] | 65% | 10 µM | 225% | 7.9 µM | 
Cc1cc2c(=O)c3c(=O)n(-c4ccccc4)c(C4CCC4)nc3n(C)c2s1 [Example 2.9, 2-cyclobutyl-7,9-dimethyl-3-phenylthieno[3′,2′:5,6]pyrido[2,3-d]pyrimidine-4,5(3H,9H)-dione] | 96% | 3.7 µM | 207% | 2.2 µM | 
Cn1c2nc(C3CCC3)n(-c3ccccc3)c(=O)c2c(=O)c2ccsc21 [Example 2.10, 2-cyclobutyl-9-methyl-3-phenylthieno[3′,2′:5,6]pyrido[2,3-d]pyrimidine-4,5(3H,9H)-dione] | 167% | 5.5 µM | 393% | 2 µM | 
Cn1c2ccsc2c(=O)c2c(=O)n(-c3ccccc3)c(C3CCC3)nc21 [Example 2.11, 2-cyclobutyl-9-methyl-3-phenylthieno[2′,3′:5,6]pyrido[2,3-d]pyrimidine-4,5(3H,9H)-dione] | 152% | 4.5 µM | 157% | 2 µM | 
Cc1cc2c(s1)c(=O)c1c(=O)n(-c3ccccc3)c(C3CCC3)nc1n2C [Example 2.12, 2-cyclobutyl-7,9-dimethyl-3-phenylthieno[2′,3′:5,6]pyrido[2,3-d]pyrimidine-4,5(3H,9H)-dione] | 138% | 9 µM | 133% | 3 µM | 
CCc1cc2c(=O)c3c(=O)n(-c4ccccc4)c(C4CCC4)nc3n(C)c2s1 [Example 2.13, 2-cyclobutyl-7-ethyl-9-methyl-3-phenylthieno[3′,2′:5,6]pyrido[2,3-d]pyrimidine-4,5(3H,9H)-dione] | 66% | 16 µM | 118% | 6.1 µM | 
Cc1csc2c1c(=O)c1c(=O)n(-c3ccccc3)c(C3CCC3)nc1n2C [Example 2.14, 2-cyclobutyl-6,9-dimethyl-3-phenylthieno[3′,2′:5,6]pyrido[2,3-d]pyrimidine-4,5(3H,9H)-dione] | 10% |  | 114% | 13 µM | 
Cc1csc2c(=O)c3c(=O)n(-c4ccccc4)c(C4CCC4)nc3n(C)c12 [Example 2.15, 2-cyclobutyl-8,9-dimethyl-3-phenylthieno[2′,3′:5,6]pyrido[2,3-d]pyrimidine-4,5(3H,9H)-dione] | 115% | 5.7 µM | 188% | 2.6 µM | 
Cc1scc2c(=O)c3c(=O)n(-c4ccccc4)c(C4CCC4)nc3n(C)c12 [Example 2.16, 2-cyclobutyl-8,9-dimethyl-3-phenylthieno[3′,4′:5,6]pyrido[2,3-d]pyrimidine-4,5(3H,9H)-dione] | 150% | 12.3 µM | 199% | 4.6 µM | 
NC[C@@H]1O[C@H](O[C@H]2[C@@H](O)[C@H](O[C@@H]3[C@@H](O)[C@H](N)C[C@H](N)[C@H]3O[C@H]3O[C@H](CO)[C@@H](O)[C@H](O)[C@H]3N)O[C@@H]2CO)[C@H](N)[C@@H](O)[C@@H]1O [paromomycin, reference compound] |  |  |  |  | EC50 (CFTR-Y122X; Homo sapiens, HEK293, clone pursued for HTS assay development, read-out: EC50 (readthrough response of selected clone)): 1500 µM
